# Literature values in patent publication EP0073093A1, “4' Halo-substituted sucrose derivatives” (TATE & LYLE PUBLIC LIMITED COMPANY, priority 1981, dated 1983).
# Columns and labels:
# [1] = qualitative
compound,measurement,setting,value
"2,1'-dichloro-2,1'- dideoxy derivative",sweetness,"qualitative, prior-art sucrose derivatives",not sweet at all
"2,6,1',6'-tetrachloro-2,6,1', 6'-tetradeoxy derivative",bittering power,[1]; comparable with that of quinine,potent bittering agent
O=C1NS(=O)(=O)c2ccccc21 [saccharin],after-taste,[1],unpleasantly bitter after-taste
same,times the sweetening power of sucrose,relative to sucrose,about 200 times
